This is an account of results in PubChem BioAssay (NCI).

Common to all, as to test: DTP human tumour cell line panel, 48 h
Assay [1] deals with SNB-19 CNS.
The subject of assay [2] is UACC-257 melanoma.
For assay [3], the system named is TK-10 renal.
In assay [4] the test system is RXF 393 renal.
Assay [5] relates to ACHN renal.
Assay [6] concerns MALME-3M melanoma.
Assay [7] has as its system MDA-MB-231 breast.
Assay [8] deals with NCI-H460 lung.
Assay [9] deals with COLO 205 colon.
Assay [10] relates to LOX IMVI melanoma.

Values joined by “and” are separate entries in the source; they are usually repeats but may differ in a detail not shown here. Equal values may be shown once.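 Values below derive from 48-hour exposures of cells grown in 96-well plates, with endpoints linearly interpolated between the two concentrations bracketing the appropriate inhibition level. Abbreviation: GI50, concentration required for 50% inhibition of growth. The concentration for full growth arrest is given as TGI.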

As to `CNC1=CC(=O)C2=C(C1=O)C1C3=C(C(=O)C(Br)=C(OC)C3=O)C2c2ccccc21` (configuration not stated), the GI50 (as a rule, the concentration at which growth is held to half of that of the control) in assay [1] is 2.82 µM; in [2] it was 4.58 µM; in [3] it was 7.56 µM; in [4] it was 1.49 µM; in [5], 1.74 µM; in assay [6], 6.84 µM. The GI50 in assay [7] is 1.41 µM; in assay [8], 11.1 µM; in assay [9], 9.89 µM. The TGI (in general, the concentration giving total growth inhibition) in assay [1] is 11.6 µM; in assay [2], more than 50 µM; in [3] it was 26.2 µM; in [4], 2.99 µM; in assay [5], 6.21 µM; in assay [6] it was 17.9 µM. The TGI is 3.17 µM in [7], more than 50 µM in [8] and 22 µM in assay [9].
For `Cc1cccc2c(N=Nc3ccccc3[N+](=O)[O-])c(O)[nH]c12`, the TGI in assay [1] was more than 74.1 µM; in [2] it was more than 53.5 µM; in [3], 16.9 µM; in assay [4], 16.6 µM; in assay [10] it was 27.1 µM; in assay [5], 18.8 µM. Moreover, the TGI in assay [7] was 6.58 µM; in assay [8], 30.6 µM; in assay [9] it was more than 63.5 µM.
Turning to `C=C(CN(C)Cc1ccccc1)c1ccc(C(=O)Nc2ccccc2N)cc1`, the GI50 in [1] is 6.47 µM; in assay [3] it was 7.12 µM; in assay [10], 1.05 µM; in assay [7], 0.739 µM; in assay [8], 19.9 µM; in assay [9] it was 7.72 µM. Besides, the TGI in assay [1] was 43.2 µM; in assay [3], 17.8 µM; in [10], 3.69 µM; in assay [7], 5.78 µM; in [8] it was more than 50 µM; in [9], 17.6 µM.
For the molecule `COc1ccccc1Nc1nc2ccccc2c2occc12`, the GI50 in assay [1] is 14.5 µM; in assay [2] it was 14.3 µM; in assay [3], 18.8 µM; in assay [4] it was 13.1 µM; in assay [10], 9.28 µM; in [5], 10.6 µM. Moreover, the GI50 in assay [7] was 10.9 µM; in [8], 8.09 µM; in assay [9] it was 12.6 µM. Moreover, the TGI is more than 50 µM in assay [1]; 35.7 µM in [2]; more than 50 µM in assay [3]; 23.9 µM in assay [4]; 17.4 µM in assay [10]; 24.8 µM in assay [5]. The TGI in assay [7] is 29.1 µM; in [8] it was 18 µM; in [9], more than 50 µM.
`CN(N=O)C(=O)Nc1ccc(C(=O)O)cc1`: the TGI in [1], in assay [2], in [3], in [4], in [10] and in assay [5] was more than 100 µM each time. Also, the total growth inhibition concentration (TGI) in assay [7], in assay [8] and in [9] was more than 100 µM in each case.
Take `COc1cccc2c1C(=O)c1c(O)c3c(c(O)c1C2=O)C[C@@](O)(C(C)=O)C[C@@H]3OC1CC(O)C(O)C(C)O1` (some centres not stated): the TGI in [1] was 8.41 µM and 20.5 µM; in assay [3], 81.3 µM; in [4], 9.33 µM; in assay [10] it was 3.77 µM and 2.6 µM; in assay [5], 2.41 µM and 2.85 µM; in [6], 6.66 µM and 5.96 µM. Further, the TGI was more than 100 µM in assay [7]; 2.73 µM and 5.19 µM in [8]; 27 µM in [9]. Besides, the GI50 in [5] is 0.397 µM.
For the molecule `CCCCCCCC(=O)NS(=O)(=O)c1ccccc1`, the TGI in [1], in assay [3], in assay [10], in [5], in [6] and in assay [7] was more than 100 µM throughout. Also, the TGI in assay [8] and in assay [9] was more than 100 µM in each case.
Consider `COc1cc2c(c(OC)c1OC)C(=O)c1c-2n(CCCN=[N+]=[N-])c(=O)c2cc([N+](=O)[O-])ccc12`, for which the GI50 was 72.6 µM in assay [1]; more than 100 µM in [2]; more than 100 µM in [3]; 19.1 µM in assay [4]; more than 100 µM in [10]; 35.8 µM in assay [7]. Moreover, the GI50 was 58.2 µM in assay [8] and more than 100 µM in assay [9]. The TGI in assay [1] is more than 100 µM; in [2], more than 100 µM; in [3], more than 100 µM; in [4], 66.1 µM; in assay [10], more than 100 µM; in assay [7], more than 100 µM. The TGI in assay [8] and in [9] was more than 100 µM each time.
Regarding `O=C1C(CO)=C[C@@H](O)[C@H]2O[C@@H]12`, the TGI is 65.4 µM in assay [10]; more than 100 µM in assay [5]; more than 100 µM in assay [6]; more than 100 µM in assay [7]; more than 100 µM in [8]; more than 100 µM in assay [9].
Take `Clc1ccc(-c2nc(C(Cl)Cl)nc3cc(-c4ccccc4)nn23)cc1`: the GI50 is 1.49 µM in assay [1]; 2.23 µM in assay [3]; 0.813 µM in assay [4]; more than 50 µM in assay [10]; 2 µM in [6]; 1.8 µM in [7]. In addition, the GI50 in assay [8] is 0.787 µM. The TGI in [1] was more than 50 µM; in [3] it was more than 50 µM; in assay [4], 1.87 µM; in [10] it was more than 50 µM; in assay [6] it was more than 50 µM; in assay [7] it was more than 50 µM. Besides, the TGI in [8] came out at 2.15 µM.
As to `COC(=O)[C@@H]1[C@H](O)[C@H](C)[C@H](O)[C@H](C)/C=C\C=C(C)C(=O)Nc2c(C)c(OC(C)=O)c3c(c2O)C(=O)C(C)=C2OCOC(=C23)C(C)=C[C@@](C)(O)[C@H](O)[C@@H](C)[C@H]1OC(C)=O`, the TGI in [1] is more than 100 µM; in [2], 76.6 µM; in [4], more than 100 µM; in assay [10] it was more than 100 µM; in assay [5], more than 100 µM; in assay [6] it was more than 100 µM. Besides, the TGI in assay [7] was more than 100 µM.
